Tests used:
[1] = Binding affinity to amyloid beta (unknown origin) monomer; parameters: species or system Homo sapiens
[2] = Binding affinity to amyloid beta (unknown origin) aggregates; parameters: species or system Homo sapiens
[3] = Binding affinity to amyloid beta (unknown origin); parameters: species or system Homo sapiens
[4] = target: T1, Amyloid-beta precursor protein (Homo sapiens, UniProt P05067); assay: Displacement of [125I]IMPY from amyloid beta (1 to 42) (unknown origin) measured by competitive radioligand binding assay
[5] = target: T1, Amyloid-beta precursor protein; assay: Binding affinity to amyloid beta (1 to 42) (unknown origin) fibrils
[6] = target: T1, Amyloid-beta precursor protein; assay: Binding affinity to amyloid beta (1 to 42) (unknown origin) monomer
[7] = target: T1, Amyloid-beta precursor protein; assay: Binding affinity to amyloid beta (1 to 40) (unknown origin) monomer
[8] = target: T1, Amyloid-beta precursor protein; assay: Binding affinity to amyloid beta (1 to 40) (unknown origin) fibrils
[9] = Binding affinity to tau protein (unknown origin); parameters: species or system Homo sapiens
[10] = target: T1, Amyloid-beta precursor protein; assay: Binding affinity to amyloid beta (1 to 42) (unknown origin) oligomer
[11] = target: T1, Amyloid-beta precursor protein; assay: Binding affinity to amyloid beta (1 to 40) (unknown origin) oligomer
[12] = target: T1, Amyloid-beta precursor protein; assay: Binding affinity to amyloid beta (1 to 42) (unknown origin) aggregates
[13] = Lipophilicity, logP of compound; type: physicochemical; settings: octanol/water
[14] = Drug uptake in brain of Tg mouse; type: ADME, tissue-based; settings: for tissue uptake: Tg, brain, read-out: Drug uptake
[15] = target: T1, Amyloid-beta precursor protein; assay: Binding affinity to human amyloid beta (1 to 42) monomer measured by fluorescence assay
[16] = target: T1, Amyloid-beta precursor protein; assay: Binding affinity to human amyloid beta (1 to 40) aggregates measured by fluorescence assay
[17] = target: T1, Amyloid-beta precursor protein; assay: Binding affinity to human amyloid beta (1 to 42) oligomer measured by fluorescence assay

T1 sequence (P05067 whole entry): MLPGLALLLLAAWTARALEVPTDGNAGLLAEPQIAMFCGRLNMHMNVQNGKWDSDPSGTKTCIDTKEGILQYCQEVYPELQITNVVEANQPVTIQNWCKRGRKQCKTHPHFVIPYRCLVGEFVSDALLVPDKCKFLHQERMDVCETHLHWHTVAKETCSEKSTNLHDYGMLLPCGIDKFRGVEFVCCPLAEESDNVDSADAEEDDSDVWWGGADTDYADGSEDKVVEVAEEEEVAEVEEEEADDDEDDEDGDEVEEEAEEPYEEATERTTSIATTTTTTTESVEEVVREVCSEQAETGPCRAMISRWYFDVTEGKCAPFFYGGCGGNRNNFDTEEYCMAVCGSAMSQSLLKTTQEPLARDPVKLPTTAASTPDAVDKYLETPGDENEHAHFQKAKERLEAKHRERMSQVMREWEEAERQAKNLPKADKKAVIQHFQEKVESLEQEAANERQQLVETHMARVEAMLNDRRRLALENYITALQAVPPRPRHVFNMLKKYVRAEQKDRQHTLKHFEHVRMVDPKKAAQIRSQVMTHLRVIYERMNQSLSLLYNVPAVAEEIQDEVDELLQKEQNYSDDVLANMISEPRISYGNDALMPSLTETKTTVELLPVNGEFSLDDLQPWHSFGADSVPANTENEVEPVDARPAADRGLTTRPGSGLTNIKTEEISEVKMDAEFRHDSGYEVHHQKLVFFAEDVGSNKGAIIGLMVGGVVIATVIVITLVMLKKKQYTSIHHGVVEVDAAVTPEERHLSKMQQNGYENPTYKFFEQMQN

## COc1ccc(/C=C/c2ccc3n2[B-](F)(F)[N+]2=C(C)C=CC2=C3/C=C/c2ccc(N(C)C)cc2)cc1
[1]
  Kd: 230 nM

## CC(=C(C#N)C#N)c1ccc2cc(N(C)C)ccc2c1
[2]
  Ki: 10 nM

## CN(C)c1ccc(-c2ccc(/C=C/C3=CC(=C(C#N)C#N)c4ccccc4N3CCCS(=O)(=O)O)s2)cc1
[3]
  Kd: 170 nM

## CN(CCO)c1ccc2cc(/C=C/C=C/C=C(C#N)C#N)ccc2c1
[4]
  Kd: 14.5 nM

## Cc1cc(/C=C/c2ccc(N(C)C)o2)n2c1C=C1C=CC=[N+]1[B-]2(F)F
[1]
  Kd: 149 nM

## CCO[n+]1ccc(/C=C/c2ccc(N(C)C)cc2)c2ccccc21
[5]
  Kd: 7.78 µM
[6]
  Kd: 17.6 µM
[7]
  Kd: 13 µM
[8]
  Kd: 4.29 µM

## COCCOCCn1c2ccccc2c2cc(/C=C/c3cc[n+](CCO)cc3)ccc21
[8]
  Kd: 459 µM

## CN(C)c1ccc(/C=C/c2cnc3ccccc3n2)s1
[9]
  Kd: 127 nM
[3]
  Kd: 25.2 nM

## COc1cc(/C=C/C(O)=C/C(=O)/C=C/c2ccc(OCCCF)c(OC)c2)ccc1O
[3]
  Ki: 0.07 nM

## Cc1cc(/C=C/C=C/c2ccc(N(C)C)cc2)n2c1C=C1C=CC=[N+]1[B-]2(F)F
[9]
  Kd: 2.86 nM
[2]
  Kd: 325 nM

## CCCCN(CCCC)c1ccc2cc(/C=C/c3cc[n+](C)c4ccccc34)ccc2c1
[5]
  Kd: 246 µM
[10]
  Kd: 128 µM
[6]
  Kd: 281 µM
[7]
  Kd: 71.1 µM
[8]
  Kd: 39.3 µM
[11]
  Kd: 20.1 µM

## CNc1ccc(-c2nc3ccc(O)cc3s2)cc1[18F] [FLUTEMETAMOL F 18]
[3]
  Kd: 6.7 nM

## Cc1cc(/C=C/c2ccc(-c3ccc(N(C)C)cc3)s2)n2c1C=C1C=CC=[N+]1[B-]2(F)F
[1]
  Kd: 27 nM

## Cc1ccc2nc(-c3ccc(N(C)C)cc3)sc2c1
[8]
  Ki: 143 nM

## COCCOCCOCC1=C2C(C)=CC(C)=[N+]2[B-](F)(F)n2c(/C=C/c3ccc(N(C)C)cc3)cc(C)c21
[1]
  Kd: 48.6 nM

## CN(C)c1ccc(/C=C/C=C/C=C2C(=O)CC(C)(C)CC2=O)cc1
[12]
  Ki: 645 nM

## COCCOCCn1c2ccccc2c2cc(/C=C/c3cc[n+](CCO)c4ccccc34)ccc21
[8]
  Kd: 92 µM

## COCCOCCOCCOC(=O)/C(C#N)=C/c1ccc(-c2ccc3cc(N4CCCCC4)ccc3c2)o1
[2]
  Kd: 360 nM

## CCN(CC)c1ccc(/C=C/C2=CC(/C=C/c3ccc(N(C)C)cc3)=[O+][B-](F)(F)O2)cn1
[13]
  logP: 1.94
[6]
  Kd: 0.0458 µM
[7]
  Kd: 0.106 µM

## CN(C)c1ccc2nc(C=C(C#N)C#N)sc2c1
[5]
  Kd: 0.12 µM

## CN(C)c1ccc2nc(/C=C/C=C/C=C(C#N)C#N)cnc2c1
[9]
  Kd: 43.1 nM
[3]
  Kd: 33.2 nM
[14]; in vivo
  Drug uptake: 7.76%

## CN(C)c1ccc2nc(/C=C/c3ccc(C=C(C#N)C#N)cc3)sc2c1
[5]
  Kd: 0.11 µM

## CCCN(CCC)c1ccc(/C=C/c2cc[n+](OCC)c3ccccc23)cc1
[5]
  Kd: 3.19 µM
[6]
  Kd: 13.1 µM
[7]
  Kd: 6.18 µM
[8]
  Kd: 1.13 µM

## COCCOCCOCC1=C2C(C)=CC(/C=C/c3ccc(N(C)C)cc3)=[N+]2[B-](F)(F)n2c(/C=C/c3ccc(N(C)C)cc3)cc(C)c21
[1]
  Kd: 97 nM

## CN(C)c1ccc(/C=C/C=C/C=C2C(=O)OC(C)(C)OC2=O)cc1
[12]
  Ki: 354 nM

## COCCOCCn1c2ccccc2c2cc(/C=C/c3cc[n+](C)c4ccccc34)ccc21
[5]
  Kd: 11.4 µM
[6]
  Kd: 40.2 µM
[7]
  Kd: 96.6 µM
[8]
  Kd: 13.1 µM

## CN(C)c1ccc(/C=C/C=C/C=C/C=C(C#N)C#N)cc1
[3]
  Ki: 14.1 nM

## C(=C\c1cc(/C=C/c2ccc(N3CCCC3)cc2)ncn1)/c1ccc(N2CCCC2)cc1
[9]
  Kd: 52 nM
[3]
  IC50: 2 nM

## COC(=O)/C(C#N)=C/C=C/C=C/c1ccc(N(C)C)cc1
[4]
  Kd: 106 nM

## COC(=O)C(=C/C=C/C=C/c1ccc(N(C)C)cc1)C(=O)OC
[3]
  Ki: 645 nM
[4]
  Ki: 652 nM

## CN(C)c1ccc(/C=C/C=C/C=C/C=C(C#N)C#N)cn1
[3]
  Ki: 92.6 nM

## CC(=C(C#N)C#N)c1ccc2cc(N(C)CCF)ccc2c1
[2]
  Ki: 0.2 nM

## Cc1cc(/C=C/c2ccc(N(C)C)cc2)n2c1C=C1C=CC=[N+]1[B-]2(F)F
[9]
  Kd: 44.1 nM
[1]
  Kd: 189 nM

## CN(C)c1ncc(/C=C/C=C/C=C/C=C(C#N)C#N)cn1
[3]
  Ki: 978 nM

## CN(C)c1ccc(/C=C/c2cc(/C=C/c3ccc(N(C)C)cc3)ncn2)cc1
[9]
  Kd: 54 nM
[3]
  IC50: 4 nM

## CC1=CC(C)=[N+]2C1=Cc1ccc(/C=C/c3ccc(-c4ccc([125I])cc4)s3)n1[B-]2(F)F
[12]
  Ki: 108 nM

## COCCOCCOCCOC(=O)/C(C#N)=C/c1ccc(-c2ccc3cc(N4CCCCC4)ccc3c2)n1C
[2]
  Kd: 2300 nM

## CN(C)c1ccc2cc(/C=C/C=C/C=C(C#N)C#N)ccc2c1
[13]
  logP: 4.48
[14]
  tissue uptake: 3.4 %ID/g
[2]
  Kd: 1.9 nM
  Ki: 32.7 nM

## CN(C)c1ccc2cc(/C=C/C=C(C#N)C#N)ccc2c1
[13]
  logP: 4.1
[14]
  tissue uptake: 1.9 %ID/g
[2]
  Kd: 8.8 nM
  Ki: 96.7 nM

## C[N+]1=C(/C=C/c2ccc(N3CCCC3)cc2)C(C)(C)c2ccccc21
[9]
  IC50: 5.1 nM
[8]
  Kd: 8.31 µM

## Cc1cc(/C=C/c2ccc(N(C)C)s2)n2c1C=C1C=CC=[N+]1[B-]2(F)F
[1]
  Kd: 55 nM

## COc1cc(N(C)C)cc(OC)c1/C=C/C(=O)/C=C(O)/C=C/c1c(OC)cc(N(C)C)cc1OC
[9]
  IC50: 770 nM

## CCCCN(CCCC)c1ccc2cc(/C=C/c3cc[n+](CCO)c4ccccc34)ccc2c1
[5]
  Kd: 848 µM
[10]
  Kd: 490 µM
[6]
  Kd: 1090 µM
[7]
  Kd: 246 µM
[8]
  Kd: 33.3 µM
[11]
  Kd: 41.7 µM

## N#CC(C#N)=Cc1ccc(-c2ccc(-c3ccc(O)cc3)s2)s1
[3]
  Kd: 54.6 nM
  Ki: 10 nM

## CC1=[N+]2C(=C(/C=C/c3ccc(N(C)C)cc3)c3ccc(C)n3[B-]2(F)F)C=C1
[1]
  Kd: 320 nM

## COCCOCCn1c2ccc(F)cc2c2cc(/C=C/c3cc[n+](CCO)c4ccccc34)ccc21
[7]
  Kd: 3.22 µM
[8]
  Kd: 1.9 µM
[11]
  Kd: 0.66 µM

## CCN1/C(=C/C=C2\CCCC(/C=C(/C#N)C(=O)C(C)(C)C)=C2Cl)C(C)(C)c2ccccc21
[12]
  Kd: 445 nM

## O=C(O)c1cc(/N=N/c2ccc(-c3ccc(/N=N/c4ccc(O)c(C(=O)O)c4)cc3)cc2)ccc1O [CHRYSAMINE G]
[3]
  Ki: 370 nM

## COCCOCCn1c2ccccc2c2cc(/C=C/c3cc[n+](C)cc3)ccc21
[8]
  Kd: 194 µM

## CN(C)c1ccc(/C=C/C2=CC(/C=C/c3ccc(N(C)C)cc3)=[O+][B-]3(OC(=O)C(=O)O3)O2)cc1
[15]
  Kd: 3.2 nM
[16]
  Kd: 38.1 nM
[17]
  Kd: 3.8 nM

## COCCOCCOCCOC(=O)/C(C#N)=C/c1ccc(-c2ccc3cc(N4CCCCC4)ccc3c2)s1
[2]
  Kd: 530 nM

## COc1cc(N(C)C)cc(OC)c1/C=C/C=C/C=C/C(C#N)C(=O)OCc1ccco1 (centres undefined)
[9]
  Kd: 1020 nM
[3]
  Kd: 1500 nM

## COCCOCCOCCOC(=O)/C(C#N)=C/c1ccc(N2CCCCC2)cc1
[2]
  Kd: 19400 nM

## CCCCN(CCCC)c1ccc2cc(/C=C/c3c[n+](C)cc4ccccc34)ccc2c1
[5]
  Kd: 97.9 µM
[10]
  Kd: 20.8 µM
[6]
  Kd: 25.3 µM
[7]
  Kd: 81 µM
[8]
  Kd: 1110 µM
[11]
  Kd: 36.4 µM

## CC[n+]1c(/C=C/C=C/c2ccc(N(C)C)cc2)sc2ccccc21
[9]
  Kd: 126 nM
[8]
  Kd: 1.22 µM

## Cc1cc(/C=C/c2ccc3cc(N(C)C)ccc3c2)n2c1C=C1C=CC=[N+]1[B-]2(F)F
[9]
  Kd: 1.19 nM
[2]
  Kd: 161 nM

## C[n+]1ccc(/C=C/c2ccc(N(c3ccccc3)c3ccccc3)cc2)c2ccccc21
[5]
  Kd: 17.4 µM
[6]
  Kd: 31.7 µM
[7]
  Kd: 25.9 µM
[8]
  Kd: 14.6 µM

## CC(C)CC1=CC(/C=C/C=C/c2ccc(N(C)C)cc2)=[O+][B-](F)(F)O1
[9]
  Kd: 50000 nM
[3]
  Kd: 1410 nM

## CN(C)c1ccc(/C=C/C=C/C=C(C#N)C#N)cc1
[12]
  Kd: 26.9 nM
  Ki: 36.9 nM

## Cc1ccc2c(sc(-c3ccc4c(c3)sc(-c3ccc(N(C)C)cc3)[n+]4C)[n+]2C)c1S(=O)(=O)O
[9]
  Kd: 1900 nM

## CN(C)c1ccc2cc3c(cc2c1)OCC(C=C(C#N)C#N)=C3
[3]
  Kd: 44.6 nM

## Cc1cc(/C=C/c2ccc(-c3ccc(N(C)C)cc3)o2)n2c1C=C1C=CC=[N+]1[B-]2(F)F
[1]
  Kd: 18 nM

## COc1ccc(/C=C/C2=[N+]3C(=C(/C=C/c4ccc(N(C)C)cc4)c4ccc(/C=C/c5ccc(OC)cc5)n4[B-]3(F)F)C=C2)cc1
[1]
  Kd: 320 nM

## CN(C)c1ncc(/C=C/c2nc3cc(OCC[18F])ccc3[se]2)cn1
[3]
  Kd: 1.7 nM
[13]
  logP: 1.28
